What all share (format): cell-based
The test system of assay [1] is Staphylococcus aureus (Sa). The experiment in a line: Minimum inhibitory concentration (MIC) in nutrient agar, Staphylococcus aureus. In a few lines:
(§1)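 Growth inhibition was scored visually after 48 h at 30° C on agar plates containing the test compound. Compound was incorporated at final concentrations from 500 to 1.0 ppm into nutrient agar at pH 6.8 and pH 8.2, and replicator-inoculated with bacterial suspensions at 10^8 CFU/mL.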

For a further assay, the system named is Candida albicans (Ca). The assay can be described thus: Minimum inhibitory concentration (MIC) in malt yeast agar, Candida albicans. In a few lines:
(§2)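 Agar dilution: test compound from a 1% acetone/water solution was mixed into malt yeast agar (pH 5.5) at 48 °C to final […], 25, 10, 5, 2.5, 1.0 and zero ppm. Plates dried 24 h, were replicator-inoculated with 1:9 saline-diluted suspensions of 7-day 30 °C cultures, and were read after 72 h (fungi) or 48 h (yeast) at 30 °C.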

In assay [2] the test system is Enterobacter aerogenes (Ea). The experiment in a line: Minimum inhibitory concentration (MIC) in nutrient agar, Enterobacter aerogenes. To be noted: Klebsiella aerogenes. In a few lines: as §1
The subject of assay [3] is Pseudomonas aeruginosa (Pa). The assay can be described thus: Minimum inhibitory concentration (MIC) in nutrient agar, Pseudomonas aeruginosa. To be noted: 30° C., 48 hours, read-out: Minimum Inhibitory Concentration, Pa. In a few lines:
as §1

The test system of another assay is Proteus vulgaris (Pv). The assay can be described thus: Minimum inhibitory concentration (MIC) in nutrient agar, Proteus vulgaris. In a few lines:
as §1

Assay [4] has as its system Klebsiella pneumoniae (Kp). The assay can be described thus: Minimum inhibitory concentration (MIC) in nutrient agar, Klebsiella pneumoniae. The method in brief:
as §1

Another assay has as its system Bacillus subtilis (Bs). The assay can be described thus: Minimum inhibitory concentration (MIC) in nutrient agar, Bacillus subtilis. In a few lines:
as §1

The subject of the next assay is Fusarium oxysporum (Fo). The assay can be described thus: Minimum inhibitory concentration (MIC) in malt yeast agar, Fusarium oxysporum. The method in brief: (§3)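 Growth is scored at 30 °C after 72 h for fungi and 48 h for yeast on malt yeast agar (pH 5.5) containing compound at final levels from 500 down to zero ppm. Organisms are grown 7 days at 30 °C, suspended in saline with octylphenoxy polyethoxy ethanol, and diluted 1:9 before replicator inoculation.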

Assay [5] deals with Pseudomonas aeruginosa (PRD-10). The experiment in a line: Minimum inhibitory concentration (MIC) in nutrient agar, Pseudomonas aeruginosa PRD-10. In a few lines: as §1
Assay [6] concerns Aureobasidium pullulan (Ap). The assay can be described thus: Minimum inhibitory concentration (MIC) in malt yeast agar, Aureobasidium pullulan. In a few lines: as §3
For assay [7], the system named is Saccharomyces cerevisiae (Sc). The experiment in a line: Minimum inhibitory concentration (MIC) in malt yeast agar, Saccharomyces cerevisiae. The method in brief:
as §2

[8] abbreviates: pH 6.8, nutrient agar, 30° C., 48 hours, read-out: Minimum Inhibitory Concentration, Sa.
The mark [9] stands for this setting: 48 h, pH 8.2, read-out: Minimum Inhibitory Concentration, Ea.
Where [10] appears, read: pH 6.8, nutrient agar, 30° C., 48 hours, read-out: Minimum Inhibitory Concentration, Pv.
Setting [11] is: pH 6.8, nutrient agar, 30° C., 48 hours, read-out: Minimum Inhibitory Concentration, Kp.
The mark [12] stands for this setting: 48 h, pH 8.2, read-out: Minimum Inhibitory Concentration, Bs.
Setting [13] is: pH 6.8, nutrient agar, 30° C., 48 hours, read-out: Minimum Inhibitory Concentration, Bs.
The mark [14] stands for this setting: 48 h, pH 8.2, read-out: Minimum Inhibitory Concentration, PRD.

Converted amounts (≈) assume the structure as drawn. Where two headings read alike, the source gives them in different places. Bounds are passed on as bounds.

As for `N#CSc1nsnc1-c1ccccc1` [Example I, 4-Phenyl-3-thiocyanato-1,2,5-thiadiazole], the MIC in assay [1] (48 h, pH 8.2, read-out: Minimum Inhibitory Concentration, Sa) was 500 µg/mL (≈ 2280 µM); in [1] (setting [8]), 25 µg/mL (≈ 114 µM); in the assay on Candida albicans (Ca) (48 h, pH 5.5, read-out: Minimum Inhibitory Concentration, Ca), 2.5 µg/mL (≈ 11.4 µM); in assay [2] (setting [9]), 500 µg/mL (≈ 2280 µM); in assay [2] (pH 6.8, nutrient agar, 30° C., 48 hours, read-out: Minimum Inhibitory Concentration, Ea) it was 100 µg/mL (≈ 456 µM); in assay [3] (pH 6.8, nutrient agar) it was > 500 µg/mL. The MIC was > 500 µg/mL in assay [3] (pH 8.2, nutrient agar); 500 µg/mL (≈ 2280 µM) in the assay with Proteus vulgaris (Pv) (48 h, pH 8.2, read-out: Minimum Inhibitory Concentration, Pv); 50 µg/mL (≈ 228 µM) in the assay with Proteus vulgaris (Pv) (setting [10]); 500 µg/mL (≈ 2280 µM) in assay [4] (48 h, pH 8.2, read-out: Minimum Inhibitory Concentration, Kp); 25 µg/mL (≈ 114 µM) in [4] (setting [11]); 250 µg/mL (≈ 1140 µM) with Bacillus subtilis (Bs) (setting [12]). The MIC in the assay with Bacillus subtilis (Bs) (setting [13]) is < 10 µg/mL; in the assay with Fusarium oxysporum (Fo) (pH 5.5, malt yeast agar, 30° C., 72 hours for fungi, read-out: Minimum Inhibitory Concentration, Fo), 2.5 µg/mL (≈ 11.4 µM); in assay [5] (48 h, pH 6.8, read-out: Minimum Inhibitory Concentration, PRD), > 500 µg/mL; in assay [5] (setting [14]) it was > 500 µg/mL; in [6] (pH 5.5, malt yeast agar, 30° C., read-out: Minimum Inhibitory Concentration, Ap), < 1 µg/mL; in assay [7] (pH 5.5, malt yeast agar, 30° C., 48 hours for yeast, read-out: Minimum Inhibitory Concentration, SC) it was < 1 µg/mL.

With `N#CSCSc1nsnc1-c1ccccc1` [Example XVI, 4-Phenyl-3-thiocyanato-methylthio-1,2,5-thiadiazole], the MIC was 25 µg/mL (≈ 94.2 µM) in assay [1] (setting [8]); 50 µg/mL (≈ 188 µM) in assay [1] (pH 8.2, nutrient agar, 30° C., 48 hours, read-out: Minimum Inhibitory Concentration, Sa); 5 µg/mL (≈ 18.8 µM) with Candida albicans (Ca) (pH 5.5, malt yeast agar, 30° C., 48 hours for yeast, read-out: Minimum Inhibitory Concentration, Ca); 50 µg/mL (≈ 188 µM) in assay [2] (48 h, pH 6.8, read-out: Minimum Inhibitory Concentration, Ea); 500 µg/mL (≈ 1880 µM) in assay [2] (setting [9]); 250 µg/mL (≈ 942 µM) in assay [3] (pH 8.2, nutrient agar). In addition, the MIC in the assay with Proteus vulgaris (Pv) (setting [10]) was 50 µg/mL (≈ 188 µM); in the assay on Proteus vulgaris (Pv) (pH 8.2, nutrient agar, 30° C., 48 hours, read-out: Minimum Inhibitory Concentration, Pv), 250 µg/mL (≈ 942 µM); in assay [4] (setting [11]), 25 µg/mL (≈ 94.2 µM); in assay [4] (pH 8.2, nutrient agar, 30° C., 48 hours, read-out: Minimum Inhibitory Concentration, Kp), 100 µg/mL (≈ 377 µM); in the assay on Bacillus subtilis (Bs) (setting [12]), 250 µg/mL (≈ 942 µM); in the assay on Bacillus subtilis (Bs) (setting [13]), < 10 µg/mL. Moreover, the MIC in the assay on Fusarium oxysporum (Fo) (72 h, pH 5.5, read-out: Minimum Inhibitory Concentration, Fo) was determined as 5 µg/mL (≈ 18.8 µM); in assay [5] (setting [14]), 50 µg/mL (≈ 188 µM); in [5] (pH 6.8, nutrient agar, 30° C., 48 hours, read-out: Minimum Inhibitory Concentration, PRD), 25 µg/mL (≈ 94.2 µM); in [6] (pH 5.5, read-out: Minimum Inhibitory Concentration, Ap), 2.5 µg/mL (≈ 9.42 µM); in assay [7] (48 h, pH 5.5, read-out: Minimum Inhibitory Concentration, SC), 2.5 µg/mL (≈ 9.42 µM).
